How the values were obtained:
[1] = test system: caspase-3/7 in U2OS cells; assay: Caspase-3/7 activation assay; type: cell-based
Description: Caspase-3/7 activation assay. Cells (5×10^3 cells/well) were seeded in a 96-well white plate and treated with MASM7, MFI8. Caspase 3/7 activation was measured after 6 hr by addition of the Caspase-Glo 3/7 reagent according to the manufacturer's protocol (Promega). Luminescence was detected by a F200 PRO microplate reader (TECAN). Caspase assays were performed in at least triplicate and the data normalized to vehicle-treated control wells. Dilutions of MASM7 or MFI8 were performed using a TECAN D300e Digital Dispenser from 10 mM stocks.

MEFs [2] = assay: RNA-seq; type: cell-based, mouse
From the text: RNA-seq. Sequencing results were demultiplexed and converted to FASTQ format using Illumina bcl2fastq software. The sequencing reads were adapter and quality trimmed with Trimmomatic and then aligned to the mouse genome (build mm10/GRCm38) using the splice-aware STAR aligner. The featureCounts program was utilized to generate counts for each gene based on how many aligned reads overlap its exons. These counts were then normalized and used to test for differential expression using negative binomial generalized linear models implemented by the DESeq2 R package.

THP-1 cells = assay: Cell death with BV6; type: cell-based
Description: (§1) Cell death assay. Cells (2×10^5 cells/well) were seeded in a 6-well plate and treated with the indicated drugs for 6 hours. Cells were dissociated using Accutase (Thermo Fisher; Cat. #00-4555-56) in order to avoid accidental exposure of phosphatidylserine on the outer plasma membrane. Cell death was evaluated with Dead Cell Apoptosis Kit with Annexin V Alexa Fluor™ 488 & Propidium Iodide (Thermo Fisher; Cat. #V13241) according to manufacturer's protocol. Data was acquired by BD LSRII flow cytometer system using BD FACSDiva software. Data was analyzed by FlowJo (BD).

U2OS cells [3] = assay: Cell death with BV6; type: cell-based
Description: as §1

U2OS cells [4] = assay: DNA damage, γH2AX immunofluorescence; type: cell-based
Description: Immunofluorescent analysis and microscopy. Cells were treated with MASM7, MFI8 and or Q-VD-OPh at ~70% confluence for 6 h. After treatments, cells were washed with PBS and fixed with 4% PFA for 15 min. Then cells were permeabilized with 0.1% Triton X-100 in PBS for 10 min. Cells were blocked with 5% BSA in PBS-T and incubated overnight with primary antibodies as indicated; γH2AX (Sigma; 05-636, 1:100 dilution). After incubation with primary antibodies, cells were washed with PBS and incubated with the appropriate mouse secondary antibody (ThermoFisher Scientific; A-11001) in the blocking solution. After PBS washes, coverslips were dipped in water and mounted on glass slides using Vectashield containing DAPI (Vector laboratories). Images were taken with Leica SP5 inverted confocal microscope. Data were analyzed with ImageJ.

[5] = test system: Tomm20, mitotracker green, mtDNA/nDNA, mitochondrial biogenesis markers; assay: Mitochondrial biomass and biogenesis markers; type: cell-based
Description: Western blot. Western blots were performed from whole cell lysates (WCL) prepared in lysis buffer containing 50 mM Tris-HCl pH 7.5, 1% Triton X-100, 150 mM NaCl, 5 mM MgCl2, 1 mM EGTA and 10% glycerol in the presence of protease inhibitor cocktail (Roche). WCL were separated on a 4-12% NuPAGE MES gel (Invitrogen), transferred into a PVDF membrane, block for 1 hr and immunoblot with the corresponding anti-bodies.
Analysis of mitochondrial biogenesis-related genes by q-PCR. Total RNA was extracted by using RNeasy Mini Kit (Qiagen) followed by cDNA synthesis using the SuperScript IV VILO Master Mix (Thermo Scientific), both performed according to the manufacturer's protocol. q-PCR was performed using the following primers: […]
For the q-PCR reaction, Power SYBR Green master mix (Thermo Scientific) was used according to the manufacturer's instructions. Briefly, each reaction consisted of 10 ng cDNA, 5 μL Power SYBR Green master mix, 200 nM primers (forward and reverse), and RNase-free water up to 10 μL. q-PCR was performed on the ViiA 7 Real-Time PCR System (Thermo Scientific) with the following cycle parameter: 95° C. for 10 min, 40 cycles of 95° C. for 15 s, and 60° C. for 1 min. q-PCR products were analyzed by melting curves for unspecific products or primer dimer formation. Rpi39 was used as housekeeping gene and 2^−ΔΔCT method was applied to determine the relative mRNAs expression. […]

MEFs [6] = assay: Metabolomics (TCA cycle, NAD/NADH); type: cell-based, mouse
Description: Metabolomics. MEFs were treated with MASM7 and MFI8. Cells were harvested using a cell scraper and centrifuged at 1200 rpm in 4° C. for 3 min. Each cell pellet sample was suspended into 250 to 700 μL of 80% aqueous methanol in an Eppendorf tube. The samples were vortex mixed for 15 s and sonicated in an ice-water bath for 5 min, followed by centrifugal clarification at 15,000 rpm and 5° C. in an Eppendorf 5424R centrifuge. The clear supernatants were collected. A standard stock solution of TCA cycle carboxylic acids, NAD and NADH was prepared in 80% methanol as S1. This standard solution S1 was serially diluted 1 to 4 (v/v) with the same solvent to make standard solutions S2 to S10. 20 μL of each standard solution and an aliquot of the clear supernatant from each cell was mixed with 20 μL of an internal standard solution containing 9 ^13C- or deuterium labeled analogues of the TCA cycle carboxylic acids (except isocitric acid), 20 μL of 200 mM 3-NPH solution and 20 μL of 150 mM of EDC solution. The mixtures were allowed to react at 30° C. for 30 min. After reaction, 120 μL of water was added to each solution. 10 μL of the resultant solutions was injected into a C18 UPLC column to quantitate the TCA cycle carboxylic acids by UPLC-MRM/MS with (−) ion detection, according to the procedure we described in a publication.

cells = assay: Cell death assay (Annexin V / PI); type: cell-based
Description: as §1

Cc1cccc(NC(C)c2cc(Cl)ccc2O)c1C (centres unmarked) [MFI8]
caspase-3/7 activation [1]: induced caspase-3/7 activation | genes involved in DNA damage response (MEFs [2]; MEFs): up-regulated several genes that are involved in DNA damage response | gene expression of subunits of the respiratory complexes (MEFs [2]; RNA-seq): reduced the gene expression of several nuclear-encoded subunits of the respiratory complexes | cell death in combination with BV6 (THP-1 cells): synergistically induce cell death | cell death in combination with BV6 (U2OS cells [3]): synergistically induce cell death | DNA damage (U2OS cells [4]; U2OS cells): induced DNA damage in U2OS cells | DNA damage (U2OS cells [4]; U2OS, co-treatment with pan-caspase inhibitor Q-VD-OPh): abolished the capacity of the latter to induce DNA damage | gene expression levels of mitochondrial biogenesis markers [5]: no alteration | Tomm20 protein levels, mitotracker green intensity and mitochondrial to nuclear DNA ratio ([5]; mitochondrial biomass): neither MASM7 nor MFI8 altered | metabolites of the TCA cycle (MEFs [6]): markedly reduced several metabolites such as malate, oxaloacetate, and α-ketoglutarate | total NAD+/NADH ratio (MEFs [6]): decreased the total NAD^+/NADH ratio | sensitization to BV6-induced cell death (cells; combined with BV6): potentiated the capacity of BV6 to induce cell death | sensitization to BV6-induced cell death (cells; deletion of MFN1/2 and APAF): abolished the capacity of MFI8 to sensitize cells to BV6 treatment | percentage of dead cells (cells; upon caspase 3/7 activation): did not increase the percentage of dead cells
